Experimental data taken from the NIST ThermoML archive (doi:10.1021/je800888n).

Assays:
[1] = Liquid, Closed cell (Static) method
[2] = excess molar enthalpy (molar enthalpy of mixing); xn = mol fraction of the nth substance listed; conditions: 323.15 K, 101 kPa, Liquid, Flow calorimetry

Cc1ccccc1 [toluene]
[1]
Conditions	vapor or sublimation pressure [kPa]
253.83 K	0.2392
263.64 K	0.4837
273.15 K	0.9082
273.47 K	0.9254
283.15 K	1.666
283.32 K	1.68
293.15 K	2.911
293.24 K	2.925
293.26 K	2.925
298.15 K	3.785
298.25 K	3.803
303.15 K	4.872
303.23 K	4.894
313.15 K	7.848
313.19 K	7.872
313.22 K	7.874
323.15 K	12.22
323.22 K	12.24
333.15 K	18.45
333.2 K	18.57
343.15 K	27.1
343.16 K	27.2
353.13 K	38.84
353.15 K	38.84
363.08 K	54.13
363.15 K	54.42

CCCC(=O)O [butanoic acid]
[1]
Conditions	vapor or sublimation pressure [kPa]
273.15 K	0.0137
283.15 K	0.0324
293.15 K	0.0725
293.29 K	0.072
298.15 K	0.1063
298.25 K	0.1052
303.15 K	0.1541
303.28 K	0.1545
313.15 K	0.3128
313.22 K	0.3155
323.15 K	0.6084
323.2 K	0.6183
333.15 K	1.138
333.18 K	1.153
343.15 K	2.055
343.18 K	2.073
353.1 K	3.582
353.15 K	3.593
363.08 K	5.973
363.15 K	6.095

CCCC(=O)O [butanoic acid] + Cc1ccccc1
[2]
Conditions	excess molar enthalpy [kcal/mol]
x1 = 0.0289	0.00659
x1 = 0.0576	0.00663
x1 = 0.1144	0.00368
x1 = 0.1702	-0.000361
x1 = 0.2251	-0.00433
x1 = 0.2792	-0.00731
x1 = 0.3325	-0.0104
x1 = 0.3849	-0.0129
x1 = 0.4366	-0.0149
x1 = 0.4874	-0.0163
x1 = 0.5375	-0.0174
x1 = 0.5869	-0.0176
x1 = 0.6355	-0.0169
x1 = 0.6834	-0.0161
x1 = 0.7306	-0.0147
x1 = 0.7771	-0.013
x1 = 0.823	-0.0107
x1 = 0.8682	-0.00798
x1 = 0.9127	-0.00545
x1 = 0.9567	-0.00251
x1 = 0.9784	-0.00114
